Assay results reported in paper PMC9950143 (Scientific Reports, 2023).
Where two headings read alike, the source gives them in different places.

Key:
[1] = tested on: Human Coronavirus OC43 (HCoV-OC43); experiment: HCoV-OC43 anti-nucleoprotein ELISA antiviral assay, Huh-7 cells; assay type: cell-based; details: OC43 [Huh-7]
Enterovirus 68D [2] = experiment: CPE assay, RD cells; assay type: cell-based; details: Enterovirus 68D [RD]
Enterovirus 71 = experiment: CPE assay, RD cells; assay type: cell-based; details: Enterovirus 71 [RD]
Rhinovirus A2 = experiment: CPE assay, H1 HeLa cells; assay type: cell-based
Rhinovirus 16 = experiment: CPE assay, H1 HeLa cells; assay type: cell-based; details: Rhinovirus 16 [H1 HeLa]
[3] = tested on: Dengue 1 virus (Western Pacific); experiment: microbe, parasite or virus in culture; assay type: cell-based; details: Dengue 1 virus (Western Pacific) [Huh-7]
[4] = tested on: Dengue 1 virus (Djibouti); experiment: microbe, parasite or virus in culture; assay type: cell-based
[5] = tested on: Dengue 2 virus (New Guinea C); experiment: NanoLuc reporter virus infection assay, Huh-7; assay type: cell-based; details: Dengue 2 virus (New Guinea C) [Huh-7]
Dengue 3 virus (H87) = experiment: microbe, parasite or virus in culture; assay type: cell-based
Zika virus (Dakar) = experiment: NanoLuc reporter virus infection assay, Huh-7; assay type: cell-based; details: Zika virus (Dakar) [Huh-7]
[6] = tested on: Yellow fever virus (YFS11); experiment: microbe, parasite or virus in culture; assay type: cell-based
[7] = tested on: Japanese encephalitis (14–14-2); experiment: microbe, parasite or virus in culture; assay type: cell-based; details: Japanese encephalitis (14–14-2) [Huh-7]
Ebola virus (Makona) = experiment: microbe, parasite or virus in culture; assay type: cell-based
Ebola virus (Mayinga) = experiment: microbe, parasite or virus in culture; assay type: cell-based
Ebola virus (Kikwit) = experiment: microbe, parasite or virus in culture; assay type: cell-based
Bundibugyo virus = experiment: microbe, parasite or virus in culture; assay type: cell-based
Sudan virus (Gulu) = experiment: microbe, parasite or virus in culture; assay type: cell-based
Sudan virus (Boneface) = experiment: microbe, parasite or virus in culture; assay type: cell-based
Marburg virus (Ci67) = experiment: microbe, parasite or virus in culture; assay type: cell-based
Marburg (Kabale) = experiment: microbe, parasite or virus in culture; assay type: cell-based, Marburg virus
Marburg (Nganda) = experiment: microbe, parasite or virus in culture; assay type: cell-based, Marburg virus
Marburg (Angola) = experiment: microbe, parasite or virus in culture; assay type: cell-based, Marburg virus
Ravn Virus = experiment: microbe, parasite or virus in culture; assay type: cell-based
[8] = tested on: Influenza A (A/California/07/2009); experiment: CPE assay, MDCK cells; assay type: cell-based; details: Influenza A virus; Influenza A (A/California/07/2009) [MDCK]; read-out: Antiviral activity EC50
[9] = tested on: hepatitis B virus (HBV; AD38 strain); experiment: microbe, parasite or virus in culture; assay type: cell-based; details: Hepatocyte, read-out: Antiviral activity EC50
DENV = experiment: microbe, parasite or virus in culture; assay type: cell-based; details: Dengue virus, Huh-7, read-out: EC50 range against DENV
HCV genotype 1b and 2a = experiment: HCV subgenomic replicon assay (summary of both genotypes); assay type: cell-based; details: Hepatitis C virus; genotype 1b and 2a subgenomic replicon; read-out: EC50 against replicons of both HCV genotypes
MARV Ci67 = experiment: organism not typed; assay type: cell-based, Marburg virus; details: HeLa; n = 9; read-out: RDV activity against MARV EC50
Enterovirus 68D [10] = details: listed as Enterovirus 68D; different cells and/or assay protocols; read-out: Previously reported activity EC50; cited from earlier work
Ebola virus = details: read-out: Previously reported activity EC50; cited from earlier work
HCV 1b replicon = details: Hepatitis C (1b) replicon; read-out: Previously reported activity EC50; cited from earlier work
in vitro = details: human
[11] = Cytotoxicity by nuclei count in HDV assay; details: human, Huh7-NTCP cells (HDV assay)
[12] = Compound cytotoxicity by MTS dye reduction; details: human, RD cells
[13] = Cytotoxicity, CellTiter-Glo, 96 h (229E protocol); details: human, H1 HeLa cells
[14] = n = 1, read-out: Antiviral activity EC50
[15] = Dengue virus, Huh-7, read-out: Antiviral activity EC50
[16] = Zaire ebolavirus, HeLa, read-out: Antiviral activity EC50
[17] = Sudan ebolavirus, HeLa, n = 1, read-out: Antiviral activity EC50
[18] = Filoviridae, HeLa, read-out: Antiviral activity EC50

SMILES: CCC(CC)COC(=O)[C@H](C)N[P@](=O)(OC[C@H]1O[C@@](C#N)(c2ccc3c(N)ncnn23)[C@H](O)[C@@H]1O)Oc1ccccc1 [RDV, Remdesivir]
- EC50 ([1]; Betacoronavirus 1): 67 ± 5 nM
- Selectivity index (SI) = CC50/EC50 [1]: 282
- Selectivity index (SI) = CC50/EC50 (Enterovirus 68D [2]): 56
- EC50 (Enterovirus 68D [2]; [14]): 50 nM
- Selectivity index (SI) = CC50/EC50 (Enterovirus 71): 24
- EC50 (Enterovirus 71; Enterovirus A, n = 1, read-out: Antiviral activity EC50): 140 nM
- Selectivity index (SI) = CC50/EC50 (Rhinovirus A2): > 22
- EC50 (Rhinovirus A2; Rhinovirus A, n = 1, read-out: Antiviral activity EC50): 450 nM
- EC50 (Rhinovirus 16; Enterovirus, n = 1, read-out: Antiviral activity EC50): 750 nM
- Selectivity index (SI) = CC50/EC50 (Rhinovirus 16): > 13
- Selectivity index (SI) = CC50/EC50 [3]: 159
- EC50 [3, 14]: 210 nM
- Selectivity index (SI) = CC50/EC50 [4]: 108
- EC50 [4, 15]: 310 ± 90 nM
- Selectivity index (SI) = CC50/EC50 [5]: 145
- EC50 [5, 14]: 230 nM
- Selectivity index (SI) = CC50/EC50 (Dengue 3 virus (H87)): 196
- EC50 (Dengue 3 virus (H87); [15]): 170 ± 70 nM
- Selectivity index (SI) = CC50/EC50 (Zika virus (Dakar)): 90
- EC50 (Zika virus (Dakar); [14]): 370 nM
- Selectivity index (SI) = CC50/EC50 [6]: 32
- EC50 ([6]; Yellow fever virus, Huh-7, n = 1, read-out: Antiviral activity EC50): 1060 nM
- Selectivity index (SI) = CC50/EC50 [7]: 98
- EC50 ([7]; Japanese encephalitis virus, n = 1, read-out: Antiviral activity EC50): 340 nM
- Selectivity index (SI) = CC50/EC50 (Ebola virus (Makona)): > 32
- EC50 (Ebola virus (Makona); [16]): 78 ± 4 nM
- Selectivity index (SI) = CC50/EC50 (Ebola virus (Mayinga)): > 18
- EC50 (Ebola virus (Mayinga); [16]): 136 ± 17 nM
- Selectivity index (SI) = CC50/EC50 (Ebola virus (Kikwit)): > 36
- EC50 (Ebola virus (Kikwit); [16]): 70 ± 8 nM
- Selectivity index (SI) = CC50/EC50 (Bundibugyo virus): > 53
- EC50 (Bundibugyo virus; Bundibugyo virus, HeLa, read-out: Antiviral activity EC50): 190 ± 20 nM
- Selectivity index (SI) = CC50/EC50 (Sudan virus (Gulu)): > 192
- EC50 (Sudan virus (Gulu); [17]): 60 nM
- Selectivity index (SI) = CC50/EC50 (Sudan virus (Boneface)): > 21
- EC50 (Sudan virus (Boneface); [17]): 120 nM
- Selectivity index (SI) = CC50/EC50 (Marburg virus (Ci67)): > 83
- EC50 (Marburg virus (Ci67); [18]): 30 ± 2 nM
- Selectivity index (SI) = CC50/EC50 (Marburg (Kabale)): > 63
- EC50 (Marburg (Kabale); [18]): 40 ± 2 nM
- Selectivity index (SI) = CC50/EC50 (Marburg (Nganda)): > 104
- EC50 (Marburg (Nganda); [18]): 24 ± 4 nM
- Selectivity index (SI) = CC50/EC50 (Marburg (Angola)): > 56
- EC50 (Marburg (Angola); [18]): 45 ± 30 nM
- Selectivity index (SI) = CC50/EC50 (Ravn Virus): > 37
- EC50 (Ravn Virus; [18]): 68 ± 10 nM
- EC50 [8]: > 50000 nM
- EC50 [9]: > 1000 nM
- EC50 (DENV): 120 to 230 nM
- EC50 (HCV genotype 1b and 2a): 72 to 89 nM
- EC50 (MARV Ci67): 109 nM
- EC50 (Enterovirus 68D [10]): 100 to 1000 nM
- EC50 (Ebola virus): 3 to 140 nM
- EC50 (HCV 1b replicon): 57 nM
- CC50 at 48 h (in vitro): > 2500 nM
- CC50 (in vitro; RDV CC50 (SUDV assay)): > 2500 nM
- CC50 [11]: 8000 to 10000 nM
- CC50 ([12]; listed as Enterovirus 68D): 2820 nM
- CC50 ([12]; listed as Enterovirus 71): 3310 nM
- CC50 at 96 h [13]: > 50000 nM
